Measurements as given in PMC4362760, “JAK2^V617F Drives Mcl-1 Expression and Sensitizes Hematologic Cell Lines to Dual Inhibition of JAK2 and Bcl-xL” (PLoS ONE, 2015).
Each block holds one molecule with its values, some of them ahead of it.

How the values were obtained:
[1] = test system: Bim binding to Bcl-XL; assay: Bim immunoblot of lysates and Bcl-XL immunoprecipitates; assay type: cell-based
Procedure: For immunoprecipitation, lysates were prepared in CHAPS lysis buffer and 2 mg of cell lysate was mixed with at least 8 μg of immunoprecipitating antibody overnight at 4°C. The following day, 30 μl of a Protein A- or Protein G-agarose slurry was added for an additional 2 hr. Immunoprecipitates were washed three times in CHAPS lysis buffer, and heated in 1.5x loading buffer at 95°C for 5 min.
(§1) Caspase-3 activity was determined at each time point. Data are from duplicate samples and are representative of at least three independent experiments. (D-G) Cells were treated in combination as indicated, and cell viability was determined after 72 hr. Data are means of duplicate determinations, and are representative of at least three independent experiments. […] Drugs were added simultaneously, and cell viability was determined after 72 hr. The data were then analyzed using the drug-drug interaction model of Bliss additivity^16 to define dose combinations that were synergistic (values >15; red), antagonistic (values <-15; blue), or without effect (-15<values<15; gray). (I) Model of JAK2/Bcl-2 family inhibitor synergy. JAK2^V617F constitutively phosphorylates and activates STAT3/5, thus enforcing expression of the transcriptional target, Mcl-1. Mcl-1 collaborates with Bcl-XL to oppose apoptosis and support viability.

[2] = test system: Caspase-3/7; assay: Caspase-GLO 3/7 Assay, Caspase-3/7 activity divided by cell viability, fold of control; assay type: cell-based; conditions: for caspase-3 activity, single agent: JAKi-I or ABT-263 alone
[3] = test system: K562 cells; assay: alamarBlue cell viability, JAKi-I/ABT-263 combination, 72 hr, K562; assay type: cell-based; conditions: K562, 72h, Jaki-1 0 uM
Procedure: Transfection of siRNAs was performed using Lipofectamine RNAiMAX according to the manufacturer’s recommendations. […] Caspase-3 activity was determined using the Caspase-GLO 3/7 Assay (Promega) in parallel with the CellTiter-GLO viability assay (Promega). The data are expressed as Caspase-3/7 activity divided by cell viability.
as §1
Supplementary file pone.0114363.s006.xls: S6 Dataset Cells were treated in combination as indicated, and cell viability was determined using alamarBlue after 72 hr. Data are means of duplicate determinations, and are representative of at least three independent experiments. (XLS) Click here for additional data file.

[4] = target: Bcl-w; conditions: cited from earlier work
[5] = target: CAMKK2 (Homo sapiens, UniProt Q96RR4); assay: TR-FRET Kinome CAMKK2; assay type: binding; conditions: CAMKK2 Invitrogen .03(Subs Conc)
Text: (§2) (XLS) Click here for additional data file.

[6] = target: DDR1 (Homo sapiens, UniProt Q08345); assay: TR-FRET Kinome DDR1; assay type: binding; conditions: DDR1 Invitrogen .01(Subs Conc)
Text: as §2

[7] = target: EGFR (Homo sapiens, UniProt P00533); assay: TR-FRET Kinome EGFR; assay type: binding; conditions: EGFR Invitrogen .05(Subs Conc)
Text: as §2

[8] = target: PKCzeta (Homo sapiens, UniProt Q05513); assay: TR-FRET Kinome PKCzeta; assay type: binding; conditions: PKCzeta Millipore IVGN Tracer .05(Subs Conc)
Text: as §2

[9] = target: PKG1A (Homo sapiens, UniProt Q13976); assay: TR-FRET Kinome PKG1A; assay type: binding; conditions: PKG1A Millipore .05(Subs Conc)
Text: as §2

[10] = target: Plk3 (Homo sapiens, UniProt Q9H4B4); assay: TR-FRET Kinome Plk3; assay type: binding; conditions: Plk3 Invitrogen .05(Subs Conc)
Text: as §2

[11] = target: SGK1 (Homo sapiens, UniProt O00141); assay: TR-FRET Kinome SGK1; assay type: binding; conditions: SGK1 Millipore .1(Subs Conc)
Text: as §2

[12] = test system: STAT3 and STAT5 tyrosine phosphorylation; assay: Tyrosine phosphorylation of STAT3 and STAT5 by immunoblotting in leukemia cell lines; assay type: cell-based
Procedure: SET-2, HEL, MV4;11, and K562 cells were obtained from ATCC and cultured as recommended. UKE-1 cells were purchased from Walter Fiedler (University of Hamburg). Cell lysates were either prepared using CHAPS lysis buffer (10 mM HEPES, pH 7.4, 150 mM NaCl, 1% CHAPS) or cell extraction buffer containing 1% Triton X-100, 0.1% SDS, and 0.5% deoxycholate. All buffers were supplemented with protease and phosphatase inhibitor cocktails prior to use.
(§3) Fig 1 Regulation of Mcl-1 and Bcl-XL by JAK2 ^V617F. […] Tyrosine phoshorylation of STAT3 and STAT5 was determined by immunoblotting. […] Constitutive tyrosine phosphorylation of STAT3 and STAT5 was determined by immunoblotting. […] Data represent means +/- standard deviation for two independent determinations each performed in triplicate. […] (G) Quantification of the data shown in (F). Data are expressed as the ratio of intensity of Mcl-1/β-actin for each time point. […] Data are means of duplicate samples and are representative of two independent experiments.

[13] = test system: Bcl-XL mRNA; assay: Bcl-XL mRNA abundance by qPCR in SET-2, UKE-1, HEL, MV4;11, K562 cells; assay type: cell-based; conditions: for BCLxl % Control: treated vs non-treated (100.0); for BCLxl Mean QTY: treated, normalised mRNA quantity by qPCR
Procedure: as §3
Data represent means +/- standard deviation for two independent determinations each performed in triplicate (data in Summary tab). Individual experimental data in exp 051409 and repeat Mcl1 tabs. (XLS) Click here for additional data file.

[14] = test system: STAT3 binding to the Mcl-1 promoter; assay: ChIP of STAT3 binding to the Mcl-1 promoter (EZ-ChIP); assay type: cell-based; conditions: 1 μM, 6 hr; cell lines expressing JAK2 V617F, not in lines without this lesion

Sequence of SGK1 (O00141 whole entry): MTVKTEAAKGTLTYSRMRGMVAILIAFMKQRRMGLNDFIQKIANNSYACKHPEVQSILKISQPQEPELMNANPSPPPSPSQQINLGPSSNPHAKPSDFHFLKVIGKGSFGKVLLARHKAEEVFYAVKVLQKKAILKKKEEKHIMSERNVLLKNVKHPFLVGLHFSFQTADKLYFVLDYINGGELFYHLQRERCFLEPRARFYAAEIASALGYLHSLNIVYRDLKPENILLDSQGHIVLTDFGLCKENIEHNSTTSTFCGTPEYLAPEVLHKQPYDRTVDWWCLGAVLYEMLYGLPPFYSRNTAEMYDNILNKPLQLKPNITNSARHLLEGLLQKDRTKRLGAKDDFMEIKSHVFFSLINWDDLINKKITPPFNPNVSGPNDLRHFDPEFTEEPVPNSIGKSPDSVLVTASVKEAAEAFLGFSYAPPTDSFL
Sequence of PKG1A (Q13976 whole entry): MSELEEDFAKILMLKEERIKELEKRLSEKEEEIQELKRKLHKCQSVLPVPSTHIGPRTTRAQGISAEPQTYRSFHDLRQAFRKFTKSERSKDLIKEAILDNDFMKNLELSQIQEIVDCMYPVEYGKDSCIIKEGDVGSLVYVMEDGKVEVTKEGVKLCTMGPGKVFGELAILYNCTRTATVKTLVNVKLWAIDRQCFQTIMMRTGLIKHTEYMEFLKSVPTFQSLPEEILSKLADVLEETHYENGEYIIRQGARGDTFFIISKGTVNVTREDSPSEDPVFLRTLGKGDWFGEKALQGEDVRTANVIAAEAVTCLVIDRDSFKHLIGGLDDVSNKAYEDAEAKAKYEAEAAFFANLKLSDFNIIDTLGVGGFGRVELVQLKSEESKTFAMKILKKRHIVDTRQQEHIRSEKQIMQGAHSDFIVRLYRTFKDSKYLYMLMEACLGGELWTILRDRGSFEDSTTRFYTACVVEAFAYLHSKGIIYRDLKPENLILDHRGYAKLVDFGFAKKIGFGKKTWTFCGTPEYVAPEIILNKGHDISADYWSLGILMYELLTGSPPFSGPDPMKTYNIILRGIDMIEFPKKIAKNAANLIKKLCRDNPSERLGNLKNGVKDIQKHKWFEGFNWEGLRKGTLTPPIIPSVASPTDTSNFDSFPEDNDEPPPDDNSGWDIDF
Sequence of PKCzeta (Q05513 whole entry): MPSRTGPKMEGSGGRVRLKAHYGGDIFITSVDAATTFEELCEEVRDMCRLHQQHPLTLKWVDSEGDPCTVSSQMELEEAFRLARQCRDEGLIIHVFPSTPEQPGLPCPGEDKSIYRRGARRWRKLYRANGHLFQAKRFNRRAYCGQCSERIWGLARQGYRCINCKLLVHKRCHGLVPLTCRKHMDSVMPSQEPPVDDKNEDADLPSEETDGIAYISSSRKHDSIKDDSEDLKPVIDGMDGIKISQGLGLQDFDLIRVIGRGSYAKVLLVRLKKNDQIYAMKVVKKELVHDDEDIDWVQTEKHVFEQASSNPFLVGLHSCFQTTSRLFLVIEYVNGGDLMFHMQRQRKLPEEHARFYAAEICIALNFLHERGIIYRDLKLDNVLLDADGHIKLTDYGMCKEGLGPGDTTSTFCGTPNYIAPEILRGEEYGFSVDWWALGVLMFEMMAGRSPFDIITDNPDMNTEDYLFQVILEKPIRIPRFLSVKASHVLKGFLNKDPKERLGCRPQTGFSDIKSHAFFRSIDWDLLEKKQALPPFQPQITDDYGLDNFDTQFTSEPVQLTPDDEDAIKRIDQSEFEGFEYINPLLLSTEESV
Sequence of CAMKK2 (Q96RR4 whole entry): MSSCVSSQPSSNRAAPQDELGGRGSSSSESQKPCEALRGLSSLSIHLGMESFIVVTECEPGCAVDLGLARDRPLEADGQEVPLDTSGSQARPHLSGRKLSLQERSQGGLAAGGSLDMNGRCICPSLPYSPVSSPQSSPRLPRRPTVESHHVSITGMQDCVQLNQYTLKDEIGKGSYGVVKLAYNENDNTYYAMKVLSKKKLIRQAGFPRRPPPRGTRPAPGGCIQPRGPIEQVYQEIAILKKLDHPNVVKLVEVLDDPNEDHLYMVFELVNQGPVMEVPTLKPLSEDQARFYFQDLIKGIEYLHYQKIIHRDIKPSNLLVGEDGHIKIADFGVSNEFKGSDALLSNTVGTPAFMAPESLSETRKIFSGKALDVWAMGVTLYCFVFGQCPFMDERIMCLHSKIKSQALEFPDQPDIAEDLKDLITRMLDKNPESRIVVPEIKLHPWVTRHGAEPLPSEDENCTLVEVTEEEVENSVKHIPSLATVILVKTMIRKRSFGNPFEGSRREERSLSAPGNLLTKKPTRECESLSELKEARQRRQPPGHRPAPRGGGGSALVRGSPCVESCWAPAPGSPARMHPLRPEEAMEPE
Sequence of EGFR (P00533 25-1210): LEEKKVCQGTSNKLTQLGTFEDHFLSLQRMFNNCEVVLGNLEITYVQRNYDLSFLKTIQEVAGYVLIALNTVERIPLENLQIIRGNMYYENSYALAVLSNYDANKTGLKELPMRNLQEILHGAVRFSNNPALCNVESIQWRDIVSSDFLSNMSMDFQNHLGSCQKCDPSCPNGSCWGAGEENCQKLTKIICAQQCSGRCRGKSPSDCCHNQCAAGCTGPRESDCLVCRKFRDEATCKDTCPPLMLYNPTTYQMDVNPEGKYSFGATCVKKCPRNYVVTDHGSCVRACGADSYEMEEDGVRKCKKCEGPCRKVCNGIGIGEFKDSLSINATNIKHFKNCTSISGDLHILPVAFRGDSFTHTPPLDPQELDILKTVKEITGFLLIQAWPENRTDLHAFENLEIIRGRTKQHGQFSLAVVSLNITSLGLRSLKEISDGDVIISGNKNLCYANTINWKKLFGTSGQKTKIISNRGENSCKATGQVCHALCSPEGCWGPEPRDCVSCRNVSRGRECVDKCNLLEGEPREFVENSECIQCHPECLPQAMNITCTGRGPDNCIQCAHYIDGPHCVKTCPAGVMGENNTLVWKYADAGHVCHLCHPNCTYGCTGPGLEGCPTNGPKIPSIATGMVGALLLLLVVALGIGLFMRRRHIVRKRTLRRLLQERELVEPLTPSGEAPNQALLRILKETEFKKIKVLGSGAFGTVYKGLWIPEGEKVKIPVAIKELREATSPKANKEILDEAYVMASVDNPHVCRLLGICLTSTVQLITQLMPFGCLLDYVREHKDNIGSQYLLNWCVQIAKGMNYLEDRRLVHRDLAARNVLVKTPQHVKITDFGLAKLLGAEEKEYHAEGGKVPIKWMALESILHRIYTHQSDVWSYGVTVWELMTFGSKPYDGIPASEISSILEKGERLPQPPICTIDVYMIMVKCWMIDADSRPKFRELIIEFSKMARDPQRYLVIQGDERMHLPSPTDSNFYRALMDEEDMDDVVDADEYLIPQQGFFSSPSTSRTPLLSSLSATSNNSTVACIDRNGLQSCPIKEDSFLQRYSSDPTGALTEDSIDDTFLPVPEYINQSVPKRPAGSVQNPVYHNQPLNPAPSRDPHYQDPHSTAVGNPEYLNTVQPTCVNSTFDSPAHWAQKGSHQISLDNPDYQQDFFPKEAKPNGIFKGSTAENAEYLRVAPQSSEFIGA
Sequence of Plk3 (Q9H4B4 whole entry): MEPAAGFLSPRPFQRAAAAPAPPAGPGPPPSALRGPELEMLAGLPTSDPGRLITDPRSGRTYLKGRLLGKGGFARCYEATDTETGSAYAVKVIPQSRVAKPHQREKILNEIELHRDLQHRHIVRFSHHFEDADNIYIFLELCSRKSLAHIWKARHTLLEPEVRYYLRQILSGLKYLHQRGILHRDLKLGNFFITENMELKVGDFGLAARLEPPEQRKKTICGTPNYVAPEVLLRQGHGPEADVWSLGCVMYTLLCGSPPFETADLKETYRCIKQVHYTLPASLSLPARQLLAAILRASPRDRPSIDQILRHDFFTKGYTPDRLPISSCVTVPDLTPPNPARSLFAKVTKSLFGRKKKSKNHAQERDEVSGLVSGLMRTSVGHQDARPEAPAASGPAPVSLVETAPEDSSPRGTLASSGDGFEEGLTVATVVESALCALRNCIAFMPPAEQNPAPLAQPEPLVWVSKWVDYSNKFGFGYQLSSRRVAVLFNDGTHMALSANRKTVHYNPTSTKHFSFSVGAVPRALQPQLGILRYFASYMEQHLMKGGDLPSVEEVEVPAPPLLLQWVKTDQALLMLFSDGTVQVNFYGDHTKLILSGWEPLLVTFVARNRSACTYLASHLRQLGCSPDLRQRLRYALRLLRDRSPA
Sequence of DDR1 (Q08345 19-913): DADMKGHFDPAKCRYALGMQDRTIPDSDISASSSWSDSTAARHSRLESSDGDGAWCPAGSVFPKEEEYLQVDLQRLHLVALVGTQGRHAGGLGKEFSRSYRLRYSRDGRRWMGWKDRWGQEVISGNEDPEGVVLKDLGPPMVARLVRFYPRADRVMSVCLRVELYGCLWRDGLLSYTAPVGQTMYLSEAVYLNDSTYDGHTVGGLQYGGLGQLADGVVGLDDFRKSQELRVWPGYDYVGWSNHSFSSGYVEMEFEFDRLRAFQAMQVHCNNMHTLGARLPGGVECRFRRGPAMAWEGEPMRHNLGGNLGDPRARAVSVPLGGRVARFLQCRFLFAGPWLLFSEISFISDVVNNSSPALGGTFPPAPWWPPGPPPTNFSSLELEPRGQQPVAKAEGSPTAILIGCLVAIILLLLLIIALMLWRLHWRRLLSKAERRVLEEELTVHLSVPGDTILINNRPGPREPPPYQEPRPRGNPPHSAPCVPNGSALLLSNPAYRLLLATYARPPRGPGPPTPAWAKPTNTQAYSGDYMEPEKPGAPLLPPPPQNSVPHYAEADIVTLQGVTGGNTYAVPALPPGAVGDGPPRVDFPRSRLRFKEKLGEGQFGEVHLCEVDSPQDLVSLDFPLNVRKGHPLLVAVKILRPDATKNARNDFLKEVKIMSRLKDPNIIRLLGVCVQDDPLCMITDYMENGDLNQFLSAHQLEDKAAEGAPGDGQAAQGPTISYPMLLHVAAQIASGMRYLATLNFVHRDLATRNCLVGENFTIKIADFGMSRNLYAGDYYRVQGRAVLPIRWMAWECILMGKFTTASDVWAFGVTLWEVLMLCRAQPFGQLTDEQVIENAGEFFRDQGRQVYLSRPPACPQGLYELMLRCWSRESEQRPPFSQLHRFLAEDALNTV

- Bim binding to Bcl-XL ([1]; 0.15 μM ABT-263, 3 hr, irrespective of JAK2 mutational status): displaced
SMILES: CC1(C)CCC(c2ccc(Cl)cc2)=C(CN2CCN(c3ccc(C(=O)NS(=O)(=O)c4ccc(N[C@H](CCN5CCOCC5)CSc5ccccc5)c(S(=O)(=O)C(F)(F)F)c4)cc3)CC2)C1 [ABT-263]
- caspase-3 activity, combination ([2]; JAKi-I 6 hr pretreatment followed by ABT-263, within four hours, cell lines harboring JAK2 V617F): synergistic induction
- caspase-3 activity, single agent [2]: neither JAKi-I nor ABT-263 alone induced caspase-3 activity
- Viability (% Inhibiton) ([3]; ABT-263 0.003 uM): 0%
- Viability (% Inhibiton) ([3]; ABT-263 0.01 uM): 0%
- Viability (% Inhibiton) ([3]; ABT-263 0.03 uM): 0%
- Viability (% Inhibiton) ([3]; ABT-263 0.1 uM): 0%
- Viability (% Inhibiton) ([3]; ABT-263 0.3 uM): 10%
- Viability (% Inhibiton) ([3]; ABT-263 1 uM): 19%
- Ki [4]: < 0.001 µM

SMILES: CC(C)(C)c1nc2c3cc[nH]c(=O)c3c3cc(F)ccc3c2[nH]1 [JAKi-I, JAK inhibitor I]
- Ki [5]: > 3.1 µM
- Ki [6]: > 2.59 µM
- Ki [7]: > 1.67 µM
- Ki [8]: > 5.24 µM
- Ki [9]: > 3.63 µM
- Ki [10]: > 1.55 µM
- Ki [11]: 0.626 µM
- constitutive STAT3/5 phosphorylation ([12]; 1 μM, 1 hr, serum-free, only in JAK2 V617F lines (SET-2, UKE-1, HEL), not K562, MV4;11): inhibited
- phosphorylation of both STAT3 and STAT5 ([12]; UKE-1 (JAK2 V617F) cells, 10 min): rapid, dose-dependent inhibition
- BCLxl % Control ([13]; HEL cells): 30.4093%
- BCLxl Mean QTY ([13]; HEL cells): 76.1
- BCLxl % Control ([13]; K562 cells): 93.9154%
- BCLxl Mean QTY ([13]; K562 cells): 98.4
- BCLxl % Control ([13]; MV411 cells): 101.412%
- BCLxl Mean QTY ([13]; MV411 cells): 30.8
- BCLxl % Control ([13]; SET2 cells): 19.4966%
- BCLxl Mean QTY ([13]; SET2 cells): 62.5
- Bcl-XL transcript level ([13]; following JAK inhibition, 6 hr): sharply declined
- STAT3 binding to the MCL1 promoter [14]: disrupted
- abundance of total Bim protein ([1]; 1 μM JAKi-I, 6 hr, HEL and K562 lysates): not altered
- Bim in Bcl-XL immunoprecipitates ([1]; 1 μM JAKi-I, 6 hr, in the presence of the JAK2 V617F mutation): enriched
- caspase-3 activity, single agent [2]: neither JAKi-I nor ABT-263 alone induced caspase-3 activity
